According to the supplement of paper PMC10307832:

What was measured:
Test in all cases: relative viability (nuclei count vs DMSO), 5 days (fraction); higher = more cells survive
[1] = compound: O=S(=O)(c1ccccc1)N(CC(F)(F)F)c1ccc(C(O)(C(F)(F)F)C(F)(F)F)cc1 + Nc1nc2[nH]cc(CCc3ccc(C(=O)N[C@@H](CCC(=O)O)C(=O)O)cc3)c2c(=O)[nH]1 [Pemetrexed] (partner 0.2 µM)
Summary of the method: (§1)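 Relative viability equals treated-well nuclei counts divided by vehicle-well nuclei counts. Counts came from 4× images of lung cancer cell lines grown in 1536-well plates for 5 days after pin-tool dosing on the day after seeding. Dosing used one drug alone or a fixed anchor-drug dose plus five library-drug doses (not always all listed) in √10 steps, and values are medians of duplicate plates.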

RO-3306 + Tozasertib = compound: C1=CC2=C(C=CC(=C2)C=C3C(=O)NC(=NCC4=CC=CS4)S3)N=C1 [RO-3306] + Cc1cc(Nc2cc(N3CCN(C)CC3)nc(Sc3ccc(NC(=O)C4CC4)cc3)n2)n[nH]1 [Tozasertib] (partner 0.1 µM)
Summary of the method: as §1

[2] = compound: O=S(=O)(c1ccccc1)N(CC(F)(F)F)c1ccc(C(O)(C(F)(F)F)C(F)(F)F)cc1 + CC1(C)CCC(c2ccc(Cl)cc2)=C(CN2CCN(c3ccc(C(=O)NS(=O)(=O)c4ccc(N[C@H](CCN5CCOCC5)CSc5ccccc5)c(S(=O)(=O)C(F)(F)F)c4)cc3)CC2)C1 [Navitoclax] (partner 0.5 µM)
Summary of the method: as §1

RO-3306 + Vorinostat = compound: C1=CC2=C(C=CC(=C2)C=C3C(=O)NC(=NCC4=CC=CS4)S3)N=C1 [RO-3306] + O=C(CCCCCCC(=O)Nc1ccccc1)NO [Vorinostat] (partner 1 µM)
Summary of the method: as §1

[3] = compound: O=S(=O)(c1ccccc1)N(CC(F)(F)F)c1ccc(C(O)(C(F)(F)F)C(F)(F)F)cc1 + CC(=O)c1c(C)c2cnc(Nc3ccc(N4CCNCC4)cn3)nc2n(C2CCCC2)c1=O [Palbociclib] (partner 0.5 µM)
Summary of the method: as §1

Cell Line UMC-11 has a relative viability ([1]; first compound 0.8 µM) of 0.786, a relative viability ([1]; first compound 2.53 µM) of 0.736 and a relative viability ([1]; first compound 8 µM) of 0.852. For the same cell line, the relative viability (RO-3306 + Tozasertib; first compound 0.01 µM) was 0.174, the relative viability (RO-3306 + Tozasertib; first compound 0.03162 µM) was 0.225 and the relative viability (RO-3306 + Tozasertib; first compound 0.1 µM) was 0.199. The relative viability (RO-3306 + Tozasertib; first compound 0.3162 µM) was 0.213, the relative viability (RO-3306 + Tozasertib; first compound 1 µM) was 0.194 and the relative viability ([2]; first compound 0.8 µM) was 0.335. The relative viability ([2]; first compound 2.53 µM) was 0.352, the relative viability ([2]; first compound 8 µM) was 0.37 and the relative viability (RO-3306 + Vorinostat; first compound 0.01 µM) was 0.386. It also gave a relative viability (RO-3306 + Vorinostat; first compound 0.03162 µM) of 0.376, a relative viability (RO-3306 + Vorinostat; first compound 0.1 µM) of 0.384 and a relative viability (RO-3306 + Vorinostat; first compound 0.3162 µM) of 0.339. The relative viability (RO-3306 + Vorinostat; first compound 1 µM) was 0.322, the relative viability ([3]; first compound 0.8 µM) was 0.339 and the relative viability ([3]; first compound 2.53 µM) was 0.346. It also gave a relative viability ([3]; first compound 8 µM) of 0.311.
